Data from patent publication US8906960B2, “Synergistic effect of tocotrienols and curcumin” (Malaysian Palm Oil Board, priority 2010, dated 2014).

What was measured:
[1] = test system: B16F-10 melanoma lung metastasis; settings: cited from earlier work
[2] = test system: MCF-7 human breast cancer cells; assay: Cell growth experiment: inhibition of proliferation of MCF-7 cells (viable cell count after 72 hours); assay type: cell-based
Method: Stock solution of TRF and curcumin was prepared in dimethyl sulfoxide (DMSO) at a concentration of 10 mg/mL. For cell growth experiments (as described below), treatments of TRF and curcumin were diluted in phenol red-free RPMI 1640 medium supplemented with 5% dextran-charcoal-treated […]) to final concentrations of 1-100 μM in test medium. MCF-7 cells were suspended from T75 flask by treatment of trypsin to an equal volume of phenol red free RPMI 1640 medium supplemented with 5% dextran-charcoal treated […]), 1% penicillin-streptomycin, 1% L-glutamine and counted on a haemocytometer. Cells were added to the required volume of phenol red free RPMI medium supplemented with 5% dextran-charcoal treated […]), 1% penicillin-streptomycin, 1% L-glutamine. […] MCF-7 cells were seeded in each well of 24-well tissue culture dishes. […] Cell proliferation was measured by using an automated particle counter, Beckman Coulter Particle Counter. […] The nuclei released were counted in isoton on a Coulter particle counter. […] The IC50 value was calculated as an average of three generated value of each replicates. Comparisons between means of six groups were assessed for significance. […]

[3] = test system: PC-3, a prostate cancer cell; settings: PC-3 prostate cancer cell; cited from earlier work
[4] = test system: vascular cell adhesion molecule-1 (VCAM-1) expression; THP-1 adhesion to HUVECs; settings: suppression of VCAM-1 expression and THP-1 adhesion to HUVECs; cited from earlier work

SMILES: COc1cc(/C=C/C(=O)CC(=O)/C=C/c2ccc(O)c(OC)c2)ccc1O [Curcumin]
- Increase of life span of the animals ([1]; mice treated with curcumin): 143.85%
- Reduction of the number of lung tumor nodules ([1]; oral administration, 200 nmol/kg body weight, mice): 80%
- IC50 ([2]; Homo sapiens, MCF7, MCF-7 cells, 72 hours, 10^-8 M estradiol, test compounds 1-100 μM, combinations with 1 μM of the second ingredient): 25.3 µM
- Effect of curcumin on the anti-proliferative effect of tocotrienols ([2]; estrogen-positive MCF-7 human breast cancer cells in vitro): synergistically enhanced the anti-proliferative effect of tocotrienols

SMILES: Cc1c(C)c2c(c(C)c1O)CC[C@@](C)(CCC[C@H](C)CCC[C@H](C)CCCC(C)C)O2 [α-tocopherol]
- Effect on proliferation of PC-3 [3]: no significant effects

SMILES: CC(C)=CCC/C(C)=C/CC/C(C)=C/CC[C@]1(C)CCc2c(C)c(O)c(C)c(C)c2O1 [α-tocotrienol]
- Efficacy relative to α-tocopherol [4]: 10 fold

SMILES: CC(C)=CCC/C(C)=C/CC/C(C)=C/CC[C@]1(C)CCc2cc(O)c(C)c(C)c2O1 [γ-tocotrienol]
- Effect on proliferation of PC-3 [3]: inhibit the proliferation

SMILES: CC(C)=CCC/C(C)=C/CC/C(C)=C/CC[C@]1(C)CCc2cc(O)cc(C)c2O1 [δ-tocotrienol]
- Effect on proliferation of PC-3 [3]: inhibit the proliferation
